Reference: US11590117B2, “Treatment of a hematologic malignancy with 2-(4-chlorophenyl)-n-((2-(2,6-dioxopiperidin-3-yl)-1-oxoisoindolin-5-yl)methyl)-2,2-difluoroacetamide” (priority 2016, dated 2023)

How the values were obtained:
[1] = system: HL-60 human AML cells; test: HL-60 IV AML xenograft model, bone marrow histology; format: in vivo, SCID mice
Method: In this study, different Compound 1 dosing schedules (5 mg/kg, BID×5 consecutive days versus 2.5 mg/kg, BID×10 consecutive days) were studied while maintaining the total amount of drug administered constant. Vehicle control animals were treated with 5% N-methyl-2-pyrrolidone (NMP)/45% PEG 400/50% saline. Treatment was initiated 6 weeks post inoculation. Vehicle and Compound 1 treatment groups were terminated either on Day 7 (following 5 consecutive days of 5 mg/kg twice a day [BID] Compound 1) or on Day 11 (following 10 consecutive days of 2.5 mg/kg BID Compound 1) post treatment initiation. The primary endpoint for the study was percentage of hCD33+/CD45+ cells in the BM by FACS analysis. Additional endpoints included cell viability, body weight, and BM histology.
The alternate femur of vehicle and Compound 1-treated animals was fixed in formalin, embedded in paraffin and processed for hematoxylin and eosin staining. A single tissue section/animal was used for histological analysis and the percent of tumor in viable bone marrow was estimated based on the area occupied by tumor cells. There was a significant 35% reduction (p<0.006 relative to the vehicle control) in the percentage of viable tumor in the bone marrow with Compound 1 (5 mg/kg) BID×5 treatment. […]

[2] = system: selected AML cell lines; test: Annexin V/7-AAD flow cytometry apoptosis assay, panel of selected AML cell lines; format: cell-based, human; conditions: after 24 and 48 hours, in 4 out of the 5 cell lines evaluated
Method: Cell Apoptosis Assays: The ability of Compound 1 to induce apoptosis was assessed in selected AML cell lines and healthy PBMCs at the time points and compound concentrations indicated. For Annexin V/7-AAD readout by flow cytometry, AML cell lines were plated into flat bottom 96-well plates (BD Falcon) at a seeding density of 0.1 to 0.3×10^6 cells per mL in 200 μL complete media. Compound 1 was dispensed onto the plates and the cells were incubated for the times indicated. For frozen PBMCs, cells were thawed as previously described and plated at a seeding density of 1×10^6 cells per mL in 200 μL on Corning® BioCoat™ T-Cell Activation Anti-Human CD3 96-well plates (Corning Inc., Corning, N.Y.). Compound 1 was dispensed onto the plates and the cells were incubated for the times indicated. […] One hundred microliters of Annexin V/7-AAD buffer was added per well and the cells incubated for 15 minutes before being analyzed using the Attune Flow Cytometer (Life Technologies, Carlsbad, Calif.). For caspase 3/7 activity, the remaining 100 μL was incubated with CellEvent™ Caspase-3/7 Green ReadyProbes® Reagent (1:1000 dilution; Molecular Probes) for 15 minutes before being analyzed using the Attune Flow Cytometer. […]
Compound 1 Induces Apoptosis in Acute Myeloid Leukemia Cell Lines. […] 0.01 μM and 0.1 μM and apoptosis was assessed over time.

[3] = system: Bone marrow CD34+ cells from healthy donors (myeloid differentiation); test: Neutrophil maturation ex vivo, bone marrow CD34+ cells, flow cytometry; format: cell-based
Method: Compound 1 effects on the proliferation of CFU-GM progenitor cells are of special relevance because of the role of these progenitor cells in drug-induced neutropenia. Neutrophils are derived from CFU-GM progenitors occurring through distinct stages, from progenitor cells through myeloblasts (stage I), promyelocytes (stage II) and myelocytes (stage III) that finally mature towards neutrophils with banded or segmented nuclei. The effects of Compound 1 on neutrophil maturation were determined by using two-dimensional cultivation of progenitors followed by flow cytometry. Bone marrow CD34+ cells obtained from healthy volunteers were transferred to tissue culture medium and myeloid differentiation was induced ex vivo by adding stem cell factor (SCF), Fms-related tyrosine kinase 3 ligand (Flt-3 ligand), and granulocyte colony stimulating factor (G-CSF). Concentrations of Compound 1 up to 30 nM and exposure times of 8, 24, and 72 hours starting at Day 0 were selected to evaluate the effect of Compound 1 in this system. After exposure to Compound 1, cells were washed and then incubated in culture medium in the absence of Compound 1 until Day 14. Cell differentiation and apoptosis were measured in a flow cytometry-based method at Days 3, 7, 10, and 14 of culture, with apoptotic and dead cells identified as Annexin V positive and 7-aminoactinomycin D positive.
In FIG. 34, Bone marrow C34+ cells from healthy donors were incubated with 30 nM Compound 1 or DMSO. Compound 1 was washed out after 8, 24 or 72 hours, the medium was replaced, and the cultures were incubated until Day 14 in the absence of Compound 1 or DMSO. Cells were classified from most immature to most mature as HPC, Stage I, Stage II, Stage III and Stage IV according to their expression of CD34, CD33 and CD11b. Then apoptotic cells from each stage were identified as positive for Annexin V and labeled as AV+ HPC, AV+ Stage I, AV+ Stage II, AV+ Stage II and AV+ Stage IV. […] Representative results are shown for bone marrow progenitors from one of two healthy donors evaluated. […]

## O=C1CCC(N2Cc3cc(CNC(=O)C(F)(F)c4ccc(Cl)cc4)ccc3C2=O)C(=O)N1 (stereo not drawn) [Compound 1, 2-(4-chlorophenyl)-N-((2-(2,6-dioxopiperidin-3-yl)-1-oxoisoindolin-5-yl)methyl)-2,2-difluoroacetamide]
[1]; 2.5 mg/kg BID×10, relative to vehicle control, not statistically significant
  reduction in percentage of viable tumor in the bone marrow (histology): 23.5%
[1]; 5 mg/kg BID×5, p<0.006 relative to vehicle control
  reduction in percentage of viable tumor in the bone marrow (histology): 35%
[2]
  induction of apoptosis: marked induction of apoptosis
[3]; 30 nM (highest concentration tested), exposure 24 hours and 72 hours
  viability during neutrophil maturation: decreased
[3]; 30 nM, cultures exposed for 24 hours
  cell viability after removal of Compound 1: reaching control values at Day 10
[3]; ≤3 nM in 24-hour and 72-hour exposure groups, or 0.03 to 30 nM with 8 hours exposure
  viability during neutrophil maturation: no reduction in viability
